Experimental data published in ChEMBL document CHEMBL1149921 (Bioorg Med Chem Lett, 1996).
Values belong to the compound of their own block, whether it stands above or below them.

Assays:
[1] = biological target: T1, Neprilysin (Rattus norvegicus) (UniProt P07861); test: Compound was tested for inhibitory activity against neutral endopeptidase (NEP) at concentration 300 nM
T1 sequence (whole entry): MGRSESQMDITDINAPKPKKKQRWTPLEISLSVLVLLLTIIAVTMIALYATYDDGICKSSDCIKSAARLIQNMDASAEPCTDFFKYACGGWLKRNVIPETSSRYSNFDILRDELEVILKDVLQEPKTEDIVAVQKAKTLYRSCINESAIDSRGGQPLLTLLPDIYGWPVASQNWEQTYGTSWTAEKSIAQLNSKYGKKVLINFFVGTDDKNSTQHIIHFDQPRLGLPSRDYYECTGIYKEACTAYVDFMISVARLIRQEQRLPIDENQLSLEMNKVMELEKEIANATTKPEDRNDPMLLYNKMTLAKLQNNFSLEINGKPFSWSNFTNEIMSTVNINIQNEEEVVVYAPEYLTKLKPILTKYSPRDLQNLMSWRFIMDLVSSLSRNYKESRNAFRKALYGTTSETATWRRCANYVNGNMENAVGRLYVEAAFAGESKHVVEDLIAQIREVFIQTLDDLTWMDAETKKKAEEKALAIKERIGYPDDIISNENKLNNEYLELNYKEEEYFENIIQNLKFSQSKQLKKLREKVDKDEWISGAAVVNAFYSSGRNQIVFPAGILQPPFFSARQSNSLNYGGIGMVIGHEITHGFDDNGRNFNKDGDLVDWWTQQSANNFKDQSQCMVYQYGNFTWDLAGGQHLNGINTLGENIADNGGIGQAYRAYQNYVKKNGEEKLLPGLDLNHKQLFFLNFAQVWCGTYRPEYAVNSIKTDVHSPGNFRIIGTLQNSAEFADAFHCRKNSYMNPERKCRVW

[2] = biological target: T2, Neprilysin (Rattus norvegicus, UniProt P07861); test: compound was tested for inhibitory activity against neutral endopeptidase (NEP)
T2 sequence (P07861 whole entry): T1 sequence (whole entry)

[3] = biological target: Neprilysin (Rattus norvegicus) (UniProt P07861); test: Compound was tested for inhibitory activity against neutral endopeptidase (NEP) at concentration 10 nM
[4] = biological target: T1, Neprilysin (Rattus norvegicus); test: Compound was tested for inhibitory activity against neutral endopeptidase (NEP) at concentration 1000 nM
[5] = biological target: T3, Endothelin-converting enzyme 1 (Homo sapiens) (UniProt P42892); test: Compound was tested for inhibitory activity against Endothelin-converting enzyme isolated from guinea pig lung membrane at concentration 10 nM; format: tissue-based; conditions: Cavia porcellus, target entry is the homologue from another species
T3 sequence (whole entry): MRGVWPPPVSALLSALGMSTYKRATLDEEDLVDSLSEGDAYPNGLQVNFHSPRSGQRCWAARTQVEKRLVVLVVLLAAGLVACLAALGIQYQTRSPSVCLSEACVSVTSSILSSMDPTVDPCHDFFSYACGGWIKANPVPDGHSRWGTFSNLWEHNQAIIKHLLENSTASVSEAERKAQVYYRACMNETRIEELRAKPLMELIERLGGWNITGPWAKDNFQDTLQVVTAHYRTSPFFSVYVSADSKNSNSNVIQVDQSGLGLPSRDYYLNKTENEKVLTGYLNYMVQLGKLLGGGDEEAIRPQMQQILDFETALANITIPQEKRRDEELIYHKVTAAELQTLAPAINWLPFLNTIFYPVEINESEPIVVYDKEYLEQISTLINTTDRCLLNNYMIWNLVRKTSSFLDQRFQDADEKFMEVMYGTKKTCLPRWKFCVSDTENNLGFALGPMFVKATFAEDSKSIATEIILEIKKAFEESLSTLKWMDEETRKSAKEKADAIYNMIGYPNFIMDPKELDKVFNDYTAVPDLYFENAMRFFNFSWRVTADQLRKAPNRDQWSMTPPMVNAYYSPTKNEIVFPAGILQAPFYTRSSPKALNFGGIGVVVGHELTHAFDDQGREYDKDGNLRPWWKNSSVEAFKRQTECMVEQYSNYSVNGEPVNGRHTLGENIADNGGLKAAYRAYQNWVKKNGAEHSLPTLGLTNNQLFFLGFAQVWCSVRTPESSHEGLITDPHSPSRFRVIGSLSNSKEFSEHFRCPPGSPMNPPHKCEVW

[6] = biological target: T2, Neprilysin; test: Compound was tested for inhibitory activity against neutral endopeptidase (NEP)

SMILES: CC(C)CC(CP(=O)(O)C(Cc1ccc2ccccc2c1)NC(=O)[C@H](CCCCNC(=O)OCc1ccccc1)NS(C)(=O)=O)C(=O)N[C@@H](Cc1c[nH]c2ccccc12)C(=O)O (stereo not given in full)
inhibition [1]: 13%

SMILES: CC(C)C(CP(=O)(O)C(Cc1ccccc1)NC(=O)[C@H](CCCCN)NS(C)(=O)=O)C(=O)N[C@@H](Cc1c[nH]c2ccccc12)C(=O)O (stereo not given in full)
IC50 [2]: 800 nM

SMILES: CC(C)C(CP(=O)(O)C(Cc1ccccc1)NC(=O)[C@H](CCCCNC(=O)OCc1ccccc1)NS(C)(=O)=O)C(=O)N[C@@H](Cc1c[nH]c2ccccc12)C(=O)O (stereo not given in full)
inhibition [1]: 19%

SMILES: CC(C)CC(CP(=O)(O)C(Cc1ccccc1)NC(=O)[C@H](CC(C)C)NC(=O)OCc1ccccc1)C(=O)N[C@@H](Cc1c[nH]c2ccccc12)C(=O)O (stereo not given in full)
inhibition [1]: 9%

SMILES: CC(C)CC(CP(=O)(O)C(Cc1ccc2ccccc2c1)NC(=O)[C@H](CCCCN)NS(C)(=O)=O)C(=O)N[C@@H](Cc1c[nH]c2ccccc12)C(=O)O (stereo not given in full)
inhibition [1]: 18%

The next lines start with the values.

inhibition [3]: 31%
SMILES: CC(C)CC(CP(=O)(O)C(N)Cc1ccccc1)C(=O)N[C@@H](Cc1c[nH]c2ccccc12)C(=O)O (stereo not given in full)

IC50 [2]: 320 nM
SMILES: CC(C)CC(CP(=O)(O)C(CC(C)C)NC(=O)[C@H](CCCCNC(=O)OCc1ccccc1)NS(C)(=O)=O)C(=O)N[C@@H](Cc1c[nH]c2ccccc12)C(=O)O (stereo not given in full)

inhibition [4]: 0%
SMILES: CC(C)C(CP(=O)(O)C(Cc1ccccc1)NC(=O)[C@H](CCCCN)NC(=O)OCc1ccccc1)C(=O)N[C@@H](Cc1c[nH]c2ccccc12)C(=O)O (stereo not given in full)

inhibition [5]: 57%
IC50 [6]: 370 nM
SMILES: CC(C)CC(NC(=O)[C@H](CCCCNC(=O)OCc1ccccc1)NS(C)(=O)=O)P(=O)(O)CC(C)C(=O)N[C@@H](Cc1c[nH]c2ccccc12)C(=O)O (stereo not given in full)
